# Reference: ChEMBL document CHEMBL1201862, “PubChem BioAssay data set” (2004)
# Calls of active or inactive are those of the source.
# Legend:
# [1] = target: T1, Alkaline phosphatase, tissue-nonspecific isozyme (Homo sapiens, UniProt P05186); assay: human TNAP enzyme inhibitors, SAR follow-up, biochemical, luminescent, dose response (AID 1056)
# T1 sequence (P05186 whole entry): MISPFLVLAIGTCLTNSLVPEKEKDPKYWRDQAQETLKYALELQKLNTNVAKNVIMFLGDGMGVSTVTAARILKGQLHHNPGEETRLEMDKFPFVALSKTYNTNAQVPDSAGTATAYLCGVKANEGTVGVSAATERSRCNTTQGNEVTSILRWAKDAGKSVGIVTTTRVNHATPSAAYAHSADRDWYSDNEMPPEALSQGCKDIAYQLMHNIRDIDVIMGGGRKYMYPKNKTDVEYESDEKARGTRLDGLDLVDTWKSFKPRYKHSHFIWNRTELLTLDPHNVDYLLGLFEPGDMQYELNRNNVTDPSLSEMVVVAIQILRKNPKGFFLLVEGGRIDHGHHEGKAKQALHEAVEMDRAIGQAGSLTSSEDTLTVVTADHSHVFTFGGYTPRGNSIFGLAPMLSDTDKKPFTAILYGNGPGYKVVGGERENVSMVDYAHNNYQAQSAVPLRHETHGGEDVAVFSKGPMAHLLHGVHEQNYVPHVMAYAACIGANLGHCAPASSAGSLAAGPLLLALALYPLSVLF
# [2] = target: Glyceraldehyde-3-phosphate dehydrogenase (Homo sapiens, UniProt P04406)
# Chain of Glyceraldehyde-3-phosphate dehydrogenase (P04406 whole entry): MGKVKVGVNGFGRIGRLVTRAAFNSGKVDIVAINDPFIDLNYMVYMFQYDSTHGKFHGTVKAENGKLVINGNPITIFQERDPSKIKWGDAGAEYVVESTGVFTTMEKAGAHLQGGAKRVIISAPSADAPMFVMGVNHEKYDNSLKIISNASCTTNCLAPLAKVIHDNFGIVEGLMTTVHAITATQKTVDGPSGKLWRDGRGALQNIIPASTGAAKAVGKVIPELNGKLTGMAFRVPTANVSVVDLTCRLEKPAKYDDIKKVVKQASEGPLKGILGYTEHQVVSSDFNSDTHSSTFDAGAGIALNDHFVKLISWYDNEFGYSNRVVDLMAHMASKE
# [3] = target: T2, Tyrosine-protein phosphatase non-receptor type 22 (Homo sapiens, UniProt Q9Y2R2); type: functional
# T2 sequence (Q9Y2R2 whole entry): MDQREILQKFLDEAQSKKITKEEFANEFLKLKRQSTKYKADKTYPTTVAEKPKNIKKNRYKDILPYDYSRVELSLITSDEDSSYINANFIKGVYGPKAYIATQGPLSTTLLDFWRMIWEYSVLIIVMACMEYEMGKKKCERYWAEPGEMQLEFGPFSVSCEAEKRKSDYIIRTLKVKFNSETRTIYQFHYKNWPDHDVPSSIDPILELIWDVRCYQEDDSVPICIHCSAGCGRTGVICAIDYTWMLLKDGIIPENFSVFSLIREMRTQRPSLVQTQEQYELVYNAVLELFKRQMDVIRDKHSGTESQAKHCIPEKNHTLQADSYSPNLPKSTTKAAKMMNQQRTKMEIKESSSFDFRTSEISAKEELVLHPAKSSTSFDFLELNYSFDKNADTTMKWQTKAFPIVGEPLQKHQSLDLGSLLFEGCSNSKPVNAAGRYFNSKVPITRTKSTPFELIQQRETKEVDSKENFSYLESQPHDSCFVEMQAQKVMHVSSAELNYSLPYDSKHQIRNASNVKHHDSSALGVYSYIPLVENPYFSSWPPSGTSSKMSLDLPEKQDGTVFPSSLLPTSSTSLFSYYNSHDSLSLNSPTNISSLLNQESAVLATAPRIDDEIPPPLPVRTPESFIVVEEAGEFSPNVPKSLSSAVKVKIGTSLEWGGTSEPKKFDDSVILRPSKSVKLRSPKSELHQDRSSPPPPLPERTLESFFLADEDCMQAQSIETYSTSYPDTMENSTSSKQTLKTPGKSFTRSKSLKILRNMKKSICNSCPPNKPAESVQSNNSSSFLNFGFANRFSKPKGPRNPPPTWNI
# [4] = target: T3, Tyrosine-protein phosphatase non-receptor type 7 (Homo sapiens, UniProt P35236); type: functional
# T3 sequence (P35236 whole entry): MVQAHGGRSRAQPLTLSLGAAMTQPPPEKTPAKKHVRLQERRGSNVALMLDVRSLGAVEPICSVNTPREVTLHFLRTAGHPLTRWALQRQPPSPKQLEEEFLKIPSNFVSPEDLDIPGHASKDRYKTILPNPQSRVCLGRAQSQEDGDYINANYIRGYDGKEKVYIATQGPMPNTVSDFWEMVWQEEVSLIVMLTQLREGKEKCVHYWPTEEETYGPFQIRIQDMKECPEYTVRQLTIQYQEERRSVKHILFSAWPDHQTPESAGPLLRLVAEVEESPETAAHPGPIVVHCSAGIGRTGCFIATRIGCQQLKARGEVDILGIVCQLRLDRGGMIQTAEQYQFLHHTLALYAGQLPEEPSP
# [5] = target: T2, Tyrosine-protein phosphatase non-receptor type 22; type: functional; remark: listed apart in the source
# [6] = insulin promoter down-regulators in MIN6 cells, imaging, high-content screening, mouse beta cells (AID 1628); type: functional
# [7] = cytotoxicity in MIN6 insulinoma cells, dose response, cytotoxicity control, cell-based, mouse insulinoma (AID 2122); type: functional;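 note: confirmatory high-throughput counterscreen run to flag cytotoxic compounds; mouse MIN-6 beta cells carrying an insulin promoter eGFP reporter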
# [8] = Vero E6 cell cytotoxicity, dose response, cytotoxicity control for non-replicating M. tuberculosis project, secondary assay (AID 492998); type: functional, VeroE6; conditions: Vero C1008
# HEK293 [9] = assay: NOD1 signaling inhibitors, primary screen, cell-based, luminescence, uHTS (AID 1578); type: functional; conditions: Homo sapiens
# HEK293 [10] = assay: NOD2 signaling inhibitors in MDP-stimulated cells, cell-based, uHTS, luminescence (AID 2001); type: functional; conditions: Homo sapiens
# [11] = THP-1 cell cytotoxicity, dose response, cytotoxicity control for non-replicating M. tuberculosis project (AID 489025); type: functional
# [12] = inhibitors of firefly luciferase expression or activity, dose response, H4 neuroglioma cells, luminescence (AID 1990); type: functional, cell-based
# cells = type: functional
# [13] = HepG2 cell cytotoxicity, dose response, cytotoxicity control for non-replicating M. tuberculosis project (AID 489018); type: functional; conditions: Mycobacterium tuberculosis
# INS1 = assay: beta cell apoptosis inhibitors, cytokine rescue, dose response, luminescence, retest (AID 449756); type: functional, cell-based; conditions: Rattus norvegicus;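 note: cell death triggered by IL-1 beta plus TNF-alpha plus IFN-gamma mixture; protective hits raise ATP signal compared with cytokine alone wells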
# HEK293 [14] = assay: cells; type: functional, cell-based; conditions: Homo sapiens
# HEK293 [15] = assay: cells; type: functional, cell-based; conditions: Homo sapiens; remark: listed apart in the source
# [16] = Luminescence Cell-Based Dose Response HTS to Identify Inhibitors of 5'UTR Stem-Loop Driven Prion Protein mRNA Translation in H4 Neuroglioblastoma Cells. [Related pubchem assays: 1827 (Project Summary), 1813 (Primary HTS)]; type: functional
# [17] = inhibitors of SNCA 5'UTR-driven reporter translation, confirmation, H4 neuroglioma cells, luminescence (AID 1988); type: functional, cell-based
# Vero [18] = assay: cells; type: functional; conditions: Chlorocebus sabaeus
# Vero [19] = assay: cells; type: functional, cell-based; conditions: Chlorocebus sabaeus
# [20] = HEp-2 cell cytotoxicity, dose response, cytotoxicity control for RSV inhibitor project, HTS (AID 2410); type: functional; conditions: human respiratory syncytial virus
structure (smiles),measurement,setting,value
COC(=O)c1cc(-c2cc(F)c(F)cc2F)n[nH]1,IC50,[1],1.07 µM (active)
same,IC50,[2],> 10 µM (inconclusive)
CC(C)CCNC(=O)c1ccc2c(Cl)c3c(nc2c1)CCC3,IC50,[3],> 79.4 µM (inactive)
same,IC50,[4],> 79.4 µM (inactive)
same,IC50,[5],> 79.4 µM (inactive)
O=C(Cc1cccs1)N1CCN(c2ccc([N+](=O)[O-])cc2)CC1,IC50,[3],> 79.4 µM (inactive)
same,IC50,[4],> 79.4 µM (inactive)
same,IC50,[5],> 79.4 µM (inactive)
Cc1ccccc1Cn1c(=N)n(CC(=O)c2ccco2)c2ccccc21,IC50,[6],3.99 µM (active)
same,IC50,[7],7.02 µM (active)
O=C(N/N=C/c1cc(Br)c(Br)s1)c1ccncc1,CC50,[8],7.99 µM (active)
same,EC50,HEK293 [9],> 20 µM (inactive)
same,IC50,HEK293 [10],17.9 µM (inactive)
same,CC50,[11],6.79 µM (active)
same,EC50,[12],> 120 µM (not active)
same,IC50,cells,2.64 µM (active)
same,CC50,[13],16.7 µM (active)
same,AC50,INS1,3.31 µM (active)
same,IC50,HEK293 [14],2.13 µM (active)
same,IC50,HEK293 [15],> 20 µM (inactive)
same,EC50,[16],16.8 µM (active)
same,EC50,[17],9.58 µM (active)
CCOc1ccccc1-c1cc(C(=O)N/N=C/c2ccc(O)c(OC)c2)c2ccccc2n1,CC50,Vero [18],> 25 µM (active)
same,IC50,[3],> 79.4 µM (inactive)
same,IC50,[4],> 79.4 µM (inactive)
same,IC50,Vero [19],> 25 µM (active)
same,CC50,[20],26.7 µM (active)
same,IC50,[5],> 79.4 µM (inactive)
